Values quoted from earlier work as cited in patent US20240207235A1, “NANOEMULSION FORMULATION FOR TREATING DISBETES MELLITUS (DM)” (KING FAISAL UNIVERSITY, priority 2022, published 2024).

solubility: low solubility
SMILES: CCc1ccc(CCOc2ccc(CC3SC(=O)NC3=O)cc2)nc1 (stereo not shown) [PGZ, Pioglitazone]
